pIC50: −log10 of the molar value.
Key:
[1] = biological target: recombinant CpLDH protein (Cryptosporidium parvum, UniProt Q9GT92, F198L/K295E/R251K); assay: biochemical; format: biochemical
Description: Biochemical assays. The coding sequence of CpLDH was cloned from cDNA prepared from the AUCP-1 isolate of C. parvum, and the His-tagged CpLDH recombinant protein expressed in Escherichia coli, and purified in native form essentially as previously described (Int. J. Parasitol. 2017; 47(13), 867-874). Briefly, cDNA was prepared from total RNA extracted from the AUCP-1 isolate of C. parvum, and the coding sequencing of CpLDH (Genebank accession number AF274310.1) was PCR-amplified from the cDNA using a primer pair with a XhoI restriction site and a BamHI site. The PCR amplicon was cloned at the XhoI/BamHI site of the pET15b expression vector in-frame with the hexahistidine (His-tag) at the N-terminal and sequenced to confirm identity. The recombinant expression vector was transformed into protein expression E. coli BL21-CodonPlus-DE3-RIL (Stratagene). Transformed E. coli was cultured at 37° C. in Luria broth medium (supplemented with 100 μg/ml ampicillin and 34 μg/ml chloramphenicol) to an A600 of 0.8 followed by addition of 1 mM isopropyl-β-d-thiogalactopyranoside to induce protein expression. The expression E. coli was harvested and lysed under native conditions by sonicating in lysis buffer (50 mM NaH2PO4, 300 mM NaCl, 10 mM Imidazole, pH 8.0) containing a 1× EDTA-free protease inhibitor cocktail, 600 units benzonase and 30 kU lysozyme (EMD Millipore). The lysate was clarified by centrifugation and the His-tagged recombinant protein purified under native conditions by nickel-affinity chromatography according to the manufacturer's instructions (Novagen). The wash buffer used contained 50 mM NaH2PO4, 300 mM NaCl and 20 mM Imidazole, pH 8.0, while the elution buffer was composed of 50 mM NaH2PO4, 300 mM NaCl, 250 mM Imidazole, pH 8.0. The eluate was dialyzed using a buffer containing 5 mM Hepes-KOH (pH 7.8) and 0.5 mM DTT. The purity of the recombinant protein was determined by SDS/PAGE, and the concentration measured using a Qubit 3.0 fluorometer (Life technologies). […] On the other hand, the catalytic activity of CpLDH recombinant protein for the oxidation of lactate to pyruvate was determined by measuring the change in optical density of a 100 μl reaction mixture containing 100 mM lactate, 1 mM NAD^+, 100 mM Tris, pH 9.2, with varying concentrations of CpLDH recombinant protein at 25° C. […] In all assays, reaction mixtures without recombinant CpLDH protein were included as negative controls. All assays were performed in triplicate and repeated at least thrice. The change in optical density was measured every 15 seconds for a total of 2 minutes using a Spectra Max 384 Plus plate reader (Molecular Devices) at a wavelength of 340 nm.
Screening compounds for inhibitory activity against CpLDH. The chemical compounds were obtained from the National Cancer Institute/Developmental Therapeutics Program Open Chemical Repository. They consisted of a diverse set of compounds (n=27) reported previously (Int J Parasitol Drugs Drug Resist. 2016; 6(1), 44-53), and a Mechanistic Set IV compounds (n=800). The compounds were reconstituted in dimethyl sulfoxide (DMSO) as stock solutions. Just before use, aliquots of the stock solutions were diluted in sterile distilled water to generate working solutions, such that the final amount of DMSO added to the reaction mixtures was less than 1% (V/V). The compounds were tested for their inhibitory effect against the enzymatic activity of recombinant His-tagged CpLDH for catalyzing the reduction of pyruvate to lactate. […] Control reactions without recombinant CpLDH protein were included. Reactions were performed in triplicate and repeated at least thrice. The change in optical density was measured every 15 seconds for a total of 2 minutes using a Spectra Max 384 Plus plate reader (Molecular Devices) at a wavelength of 340 nm.

[2] = Compound cytotoxicity assay (WST-1) in HCT-8 cells; format: cell-based, human; conditions: human; HCT-8 cells, 24 h, WST-1

recombinant CpLDH protein, sequence (Q9GT92 whole entry F198L/K295E/R251K): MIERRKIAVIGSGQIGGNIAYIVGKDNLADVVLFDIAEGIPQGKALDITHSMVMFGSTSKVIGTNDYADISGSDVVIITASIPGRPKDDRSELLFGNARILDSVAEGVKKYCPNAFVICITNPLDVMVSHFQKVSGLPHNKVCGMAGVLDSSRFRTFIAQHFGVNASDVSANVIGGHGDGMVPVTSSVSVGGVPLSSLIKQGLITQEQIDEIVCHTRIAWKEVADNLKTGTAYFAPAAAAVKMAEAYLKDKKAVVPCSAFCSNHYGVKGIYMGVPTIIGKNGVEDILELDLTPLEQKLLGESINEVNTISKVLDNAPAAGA

O=C1c2ccccc2C(=O)c2c(O)c(O)cc(O)c21 [NSC10447]
pIC50 [1]: 4.33
effect on catalytic activity of recombinant CpLDH ([1]; 20 μM compound, 10 mM pyruvate, 1 mM NADH): significant (P<0.05) inhibitory effect
IC50 at 24 h [2]: 290 µM

From patent US20250387359A1, “COMPOUNDS AND METHODS FOR THE TREATMENT OF PARASITIC INFECTIONS” (THE BOARD OF TRUSTEES OF THE UNIVERSITY OF ILLINOIS, priority 2019, published 2025)
